From patent US10189845B2, “4,6-substituted-pyrazolo[1,5-a]pyrazines as janus kinase inhibitors” (ARRAY BIOPHARMA INC., priority 2014, dated 2019)
Read-outs that look alike come from different tables or passages of the source.

Columns and labels:
Assay type in all cases: biochemical
JAK1 = JAK1 (Homo sapiens (Human), UniProt P23458); test: JAK1 Inhibition Assay (Example B, Omnia kinase fluorescence peptide substrate assay)
Method in brief: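 Recombinant human JAK1 (12.5 nM) with 1 mM ATP and 8 μM Omnia Y12 Sox-peptide in 25 mM HEPES pH 7.4, 10 mM MgCl2, 0.01% Triton X-100, 1 mM DTT, 2% DMSO final. Phosphorylation read kinetically (ex 360/em 485 nm, 45 min); IC50 from 4-parameter fit of percent of control.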

Human Tyk2 kinase domain = Human Tyk2 kinase domain (Homo sapiens (Human), UniProt P29597); test: Tyk2 Inhibition Assay (Example A, Omnia kinase fluorescence peptide substrate assay); details: TYK2 Enzyme IC50 1 mM ATP, averaged IC50 ranges
Method in brief: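 Omnia Sox-peptide kinetic fluorescence assay (ex 360/em 485 nm, read every 50 s for 45 min) with 1 nM human Tyk2 kinase domain (aa 886–1187, His tag cleaved, baculovirus-expressed), 1 mM ATP, 8 μM Omnia Y12 peptide, in 25 mM HEPES pH 7.4, 10 mM MgCl2, 0.01% Triton X-100, 1 mM DTT, 2% DMSO. IC50 from 4-parameter logistic fit of percent of control.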

JAK3 = JAK3 (Homo sapiens (Human), UniProt P52333); test: JAK3 Inhibition Assay (Example D, Omnia kinase fluorescence peptide substrate assay)
Method in brief: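 Mixture held 2 nM JAK3, 1 mM ATP and 10 μM Omnia Y7 peptide in 25 mM HEPES pH 7.4, 10 mM MgCl2, 0.01% Triton X-100, 1 mM DTT, 2% DMSO final. Sox fluorescence (ex 360/em 485 nm) was read every 50 s for 45 min. IC50 came from a 4-parameter logistic fit of percent of control.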

JAK2 = JAK2 (Homo sapiens (Human), UniProt O60674); test: JAK2 Inhibition Assay (Example C, Omnia kinase fluorescence peptide substrate assay); details: JAK2 Enzyme IC50 1 mM ATP, averaged IC50 ranges
Method in brief: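 4 nM JAK2 with 1 mM ATP and 10 μM Omnia Y7 peptide in 25 mM HEPES pH 7.4, 10 mM MgCl2, 0.01% Triton X-100, 1 mM DTT, 2% DMSO. Sox fluorescence (ex 360/em 485 nm) read every 50 s for 45 min; IC50 from 4-parameter fit of percent of control.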

[1] = JAK1 Enzyme IC50 1 mM ATP, 1 mM ATP, averaged IC50 ranges

Sequence of JAK1 (P23458 whole entry): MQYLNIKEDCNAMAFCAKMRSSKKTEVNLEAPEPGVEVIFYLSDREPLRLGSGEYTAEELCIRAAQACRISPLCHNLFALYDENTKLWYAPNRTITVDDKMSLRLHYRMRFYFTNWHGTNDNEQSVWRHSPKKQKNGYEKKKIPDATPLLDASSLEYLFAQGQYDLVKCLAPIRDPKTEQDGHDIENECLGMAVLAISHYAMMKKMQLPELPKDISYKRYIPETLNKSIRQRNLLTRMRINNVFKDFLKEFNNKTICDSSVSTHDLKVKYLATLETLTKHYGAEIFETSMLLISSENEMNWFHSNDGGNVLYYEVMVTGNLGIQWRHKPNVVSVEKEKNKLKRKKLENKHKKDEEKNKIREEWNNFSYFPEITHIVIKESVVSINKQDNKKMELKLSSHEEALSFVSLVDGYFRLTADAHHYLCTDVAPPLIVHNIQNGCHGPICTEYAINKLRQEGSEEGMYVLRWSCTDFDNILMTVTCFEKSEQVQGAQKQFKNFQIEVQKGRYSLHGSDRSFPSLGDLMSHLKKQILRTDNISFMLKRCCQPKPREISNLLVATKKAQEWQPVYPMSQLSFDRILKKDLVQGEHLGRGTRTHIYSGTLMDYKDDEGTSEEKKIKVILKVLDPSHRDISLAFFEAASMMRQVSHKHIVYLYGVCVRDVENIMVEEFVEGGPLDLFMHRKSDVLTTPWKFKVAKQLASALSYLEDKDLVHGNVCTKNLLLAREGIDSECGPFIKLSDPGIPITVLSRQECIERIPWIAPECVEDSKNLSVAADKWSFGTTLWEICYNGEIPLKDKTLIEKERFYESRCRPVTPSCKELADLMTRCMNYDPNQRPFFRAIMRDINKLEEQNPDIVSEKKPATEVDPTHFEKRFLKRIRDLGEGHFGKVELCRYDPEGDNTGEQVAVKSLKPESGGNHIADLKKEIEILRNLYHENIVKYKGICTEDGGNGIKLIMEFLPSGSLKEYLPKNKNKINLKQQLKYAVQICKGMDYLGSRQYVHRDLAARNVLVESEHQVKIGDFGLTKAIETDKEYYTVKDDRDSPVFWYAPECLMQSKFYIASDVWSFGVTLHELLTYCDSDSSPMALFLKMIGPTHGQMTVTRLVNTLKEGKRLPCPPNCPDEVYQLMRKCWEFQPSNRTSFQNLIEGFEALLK
Sequence of Human Tyk2 kinase domain (P29597 886-1187): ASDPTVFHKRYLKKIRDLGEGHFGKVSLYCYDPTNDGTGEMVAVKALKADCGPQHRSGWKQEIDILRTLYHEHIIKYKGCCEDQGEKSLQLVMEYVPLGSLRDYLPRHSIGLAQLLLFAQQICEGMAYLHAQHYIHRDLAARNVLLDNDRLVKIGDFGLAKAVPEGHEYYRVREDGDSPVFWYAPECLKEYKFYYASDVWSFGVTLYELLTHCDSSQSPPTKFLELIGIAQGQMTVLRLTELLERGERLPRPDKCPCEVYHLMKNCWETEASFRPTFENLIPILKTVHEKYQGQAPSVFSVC
Sequence of JAK3 (P52333 whole entry): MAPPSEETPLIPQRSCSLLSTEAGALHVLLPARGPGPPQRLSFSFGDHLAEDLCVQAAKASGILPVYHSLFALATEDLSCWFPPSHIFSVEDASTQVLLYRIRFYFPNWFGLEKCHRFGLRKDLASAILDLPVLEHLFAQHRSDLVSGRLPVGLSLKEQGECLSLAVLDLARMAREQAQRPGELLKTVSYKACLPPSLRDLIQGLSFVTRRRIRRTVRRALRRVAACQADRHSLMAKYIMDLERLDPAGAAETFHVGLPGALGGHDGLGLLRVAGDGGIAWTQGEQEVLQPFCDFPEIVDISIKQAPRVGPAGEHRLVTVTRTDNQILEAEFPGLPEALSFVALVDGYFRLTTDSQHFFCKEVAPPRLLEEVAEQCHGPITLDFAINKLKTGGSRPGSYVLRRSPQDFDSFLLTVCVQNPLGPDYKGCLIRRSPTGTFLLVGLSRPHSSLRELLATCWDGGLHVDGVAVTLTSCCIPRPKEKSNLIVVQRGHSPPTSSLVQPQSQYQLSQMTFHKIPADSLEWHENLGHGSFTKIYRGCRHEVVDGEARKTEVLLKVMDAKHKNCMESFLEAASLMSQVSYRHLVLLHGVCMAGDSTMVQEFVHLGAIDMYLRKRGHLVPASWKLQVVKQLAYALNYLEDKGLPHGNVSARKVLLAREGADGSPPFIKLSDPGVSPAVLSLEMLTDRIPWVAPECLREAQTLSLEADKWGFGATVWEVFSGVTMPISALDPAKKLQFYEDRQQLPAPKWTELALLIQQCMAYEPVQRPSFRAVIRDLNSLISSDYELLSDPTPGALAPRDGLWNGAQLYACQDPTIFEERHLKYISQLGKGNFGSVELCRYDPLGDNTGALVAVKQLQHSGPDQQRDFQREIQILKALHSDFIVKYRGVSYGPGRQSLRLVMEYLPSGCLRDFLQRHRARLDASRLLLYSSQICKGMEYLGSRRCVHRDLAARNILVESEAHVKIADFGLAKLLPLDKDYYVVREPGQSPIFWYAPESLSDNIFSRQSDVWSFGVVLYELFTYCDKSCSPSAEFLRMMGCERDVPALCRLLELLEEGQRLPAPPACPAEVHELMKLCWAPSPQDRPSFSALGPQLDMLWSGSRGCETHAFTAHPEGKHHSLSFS
Sequence of JAK2 (O60674 whole entry): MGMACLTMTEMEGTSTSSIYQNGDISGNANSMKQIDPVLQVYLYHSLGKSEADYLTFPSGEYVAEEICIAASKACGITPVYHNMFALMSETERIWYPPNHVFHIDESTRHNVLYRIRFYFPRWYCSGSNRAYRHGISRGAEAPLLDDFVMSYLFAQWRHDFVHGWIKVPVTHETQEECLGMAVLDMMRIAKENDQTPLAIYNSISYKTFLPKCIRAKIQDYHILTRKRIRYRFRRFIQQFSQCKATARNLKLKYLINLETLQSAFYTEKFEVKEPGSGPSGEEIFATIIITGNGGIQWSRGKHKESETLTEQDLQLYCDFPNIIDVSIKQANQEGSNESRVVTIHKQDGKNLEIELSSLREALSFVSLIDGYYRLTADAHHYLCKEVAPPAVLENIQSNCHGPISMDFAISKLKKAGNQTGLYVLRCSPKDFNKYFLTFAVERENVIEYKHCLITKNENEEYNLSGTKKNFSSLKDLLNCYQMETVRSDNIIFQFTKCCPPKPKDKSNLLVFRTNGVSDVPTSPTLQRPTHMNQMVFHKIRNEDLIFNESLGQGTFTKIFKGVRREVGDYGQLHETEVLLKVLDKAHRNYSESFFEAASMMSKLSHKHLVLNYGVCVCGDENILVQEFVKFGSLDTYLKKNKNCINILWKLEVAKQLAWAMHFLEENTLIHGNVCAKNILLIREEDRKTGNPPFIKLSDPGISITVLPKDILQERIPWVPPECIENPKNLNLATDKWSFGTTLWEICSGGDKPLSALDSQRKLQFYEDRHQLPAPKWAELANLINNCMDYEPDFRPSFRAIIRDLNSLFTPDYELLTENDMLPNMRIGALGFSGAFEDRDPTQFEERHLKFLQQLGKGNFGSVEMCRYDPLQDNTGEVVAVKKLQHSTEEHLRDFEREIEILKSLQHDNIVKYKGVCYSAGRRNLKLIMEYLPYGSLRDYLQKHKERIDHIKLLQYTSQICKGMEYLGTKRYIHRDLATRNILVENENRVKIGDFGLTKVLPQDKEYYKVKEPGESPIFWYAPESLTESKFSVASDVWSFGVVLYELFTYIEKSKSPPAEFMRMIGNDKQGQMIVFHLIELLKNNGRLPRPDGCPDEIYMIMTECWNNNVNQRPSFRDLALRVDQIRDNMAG

Row | Structure (SMILES) | IC50 (JAK1) [µM] | IC50 (Human Tyk2 kinase domain) [µM] | IC50 (JAK3) [µM] | IC50 (JAK2) [µM] | IC50 (JAK1; [1]) [µM]
1 | CCC(CC)n1cc(-c2nc(-c3cnn(CCN4CC[C@@H](OC)C4)c3)cn3nccc23)cn1 [Example 136, (R)-6-(1-(2-(3-methoxypyrrolidin-1-yl)ethyl)-1H-pyrazol-4-yl)-4-(1-(pentan-3-yl)-1H-pyrazol-4-yl)pyrazolo[1,5-a]pyrazine] | 0.1 to 1 | 0.01 to 0.1 | 1 to 10 | 0.01 to 0.1 | –
2 | CCC(CC)n1cc(-c2nc(-c3cnn(CCN4CC[C@H](OC)C4)c3)cn3nccc23)cn1 [Example 137, (S)-6-(1-(2-(3-methoxypyrrolidin-1-yl)ethyl)-1H-pyrazol-4-yl)-4-(1-(pentan-3-yl)-1H-pyrazol-4-yl)pyrazolo[1,5-a]pyrazine] | 0.1 to 1 | 0.01 to 0.1 | 1 to 10 | 0.01 to 0.1 | –
3 | CCC(CC)n1cc(-c2nc(-c3cnn(CCN4CCC(O)CC4)c3)cn3nccc23)cn1 [Example 139, 1-(2-(4-(4-(1-(pentan-3-yl)-1H-pyrazol-4-yl)pyrazolo[1,5-a]pyrazin-6-yl)-1H-pyrazol-1-yl)ethyl)piperidin-4-ol] | 0.1 to 1 | 0.01 to 0.1 | 1 to 10 | 0.1 to 1 | –
4 | CCC(CC)n1cc(-c2nc(-c3cnn(CCN4CC[C@@H](O)C4)c3)cn3nccc23)cn1 [Example 140, (R)-1-(2-(4-(4-(1-(pentan-3-yl)-1H-pyrazol-4-yl)pyrazolo[1,5-a]pyrazin-6-yl)-1H-pyrazol-1-yl)ethyl)pyrrolidin-3-ol] | 1 to 10 | 0.01 to 0.1 | 1 to 10 | 0.01 to 0.1 | –
5 | CCC(CC)n1cc(-c2nc(-c3cnn(CCN4CC[C@H](O)C4)c3)cn3nccc23)cn1 [Example 141, (S)-1-(2-(4-(4-(1-(pentan-3-yl)-1H-pyrazol-4-yl)pyrazolo[1,5-a]pyrazin-6-yl)-1H-pyrazol-1-yl)ethyl)pyrrolidin-3-ol] | 1 to 10 | 0.01 to 0.1 | 1 to 10 | 0.01 to 0.1 | –
6 | CCC(CC)n1cc(-c2nc(-c3cnn(CCN[C@H]4CCN(C)C4=O)c3)cn3nccc23)cn1 [Example 142, (S)-1-methyl-3-((2-(4-(4-(1-(pentan-3-yl)-1H-pyrazol-4-yl)pyrazolo[1,5-a]pyrazin-6-yl)-1H-pyrazol-1-yl)ethyl)amino)pyrrolidin-2-one] | 1 to 10 | 0.01 to 0.1 | 1 to 10 | 0.01 to 0.1 | –
7 | CCC(CC)n1cc(-c2nc(-c3cnn(CCN[C@@H]4CCN(C)C4=O)c3)cn3nccc23)cn1 [Example 143, (R)-1-methyl-3-((2-(4-(4-(1-(pentan-3-yl)-1H-pyrazol-4-yl)pyrazolo[1,5-a]pyrazin-6-yl)-1H-pyrazol-1-yl)ethyl)amino)pyrrolidin-2-one] | 1 to 10 | 0.1 to 1 | 1 to 10 | 0.01 to 0.1 | –
8 | CCC(CC)n1cc(-c2nc(-c3cnn(CCN4CCNC(=O)C4)c3)cn3nccc23)cn1 [Example 144, 4-(2-(4-(4-(1-(pentan-3-yl)-1H-pyrazol-4-yl)pyrazolo[1,5-a]pyrazin-6-yl)-1H-pyrazol-1-yl)ethyl)piperazin-2-one] | 0.1 to 1 | 0.01 to 0.1 | 1 to 10 | 0.01 to 0.1 | –
9 | CCC(CC)n1cc(-c2nc(-c3cnn(CCNC4CC(CO)C4)c3)cn3nccc23)cn1 (stereo not shown) [Example 145, (3-((2-(4-(4-(1-(pentan-3-yl)-1H-pyrazol-4-yl)pyrazolo[1,5-a]pyrazin-6-yl)-1H-pyrazol-1-yl)ethyl)amino)cyclobutyl)methanol] | 0.1 to 1 | 0.1 to 1 | 1 to 10 | 0.01 to 0.1 | –
10 | CCC(CC)n1cc(-c2nc(-c3cnn(CCN4CCC(CO)CC4)c3)cn3nccc23)cn1 [Example 146, (1-(2-(4-(4-(1-(pentan-3-yl)-1H-pyrazol-4-yl)pyrazolo[1,5-a]pyrazin-6-yl)-1H-pyrazol-1-yl)ethyl)piperidin-4-yl)methanol] | 1 to 10 | 0.01 to 0.1 | 1 to 10 | 0.01 to 0.1 | –
11 | CCC(CC)n1cc(-c2nc(-c3cnn(CCN4CCNCC4=O)c3)cn3nccc23)cn1 [Example 147, 1-(2-(4-(4-(1-(pentan-3-yl)-1H-pyrazol-4-yl)pyrazolo[1,5-a]pyrazin-6-yl)-1H-pyrazol-1-yl)ethyl)piperazin-2-one] | 1 to 10 | 0.01 to 0.1 | 1 to 10 | 0.01 to 0.1 | –

Results, then the molecule that gave them:

Row | IC50 (JAK1) [µM] | IC50 (Human Tyk2 kinase domain) [µM] | IC50 (JAK3) [µM] | IC50 (JAK2) [µM] | IC50 (JAK1; [1]) [µM] | Structure (SMILES)
12 | 1 to 10 | 0.01 to 0.1 | 1 to 10 | 0.01 to 0.1 | – | CCC(CC)n1cc(-c2nc(-c3cnn(CCN4CC(F)C4)c3)cn3nccc23)cn1 [Example 138, 6-(1-(2-(3-fluoroazetidin-1-yl)ethyl)-1H-pyrazol-4-yl)-4-(1-(pentan-3-yl)-1H-pyrazol-4-yl)pyrazolo[1,5-a]pyrazine]
13 | – | 0.01 to 0.1 | 1 to 10 | 0.01 to 0.1 | 0.1 to 1 | CCC(CC)n1cc(-c2nc(-c3cnn([C@H]4C[C@H](O)C4)c3)cn3nccc23)cn1 [Example 161, trans-3-(4-(4-(1-(pentan-3-yl)-1H-pyrazol-4-yl)pyrazolo[1,5-a]pyrazin-6-yl)-1H-pyrazol-1-yl)cyclobutanol]
14 | 0.1 to 1 | 0.01 to 0.1 | 1 to 10 | 0.01 to 0.1 | – | CCC(CC)n1cc(-c2nc(-c3cnn([C@H]4C[C@H](CO)C4)c3)cn3nccc23)cn1 [Example 165, (trans-3-(4-(4-(1-(pentan-3-yl)-1H-pyrazol-4-yl)pyrazolo[1,5-a]pyrazin-6-yl)-1H-pyrazol-1-yl)cyclobutyl)methanol]
15 | 0.1 to 1 | 0.01 to 0.1 | 1 to 10 | 0.01 to 0.1 | – | CCC(CC)n1cc(-c2nc(-c3cnn([C@H]4C[C@H](C(N)=O)C4)c3)cn3nccc23)cn1 [Example 167, (1r,3r)-3-(4-(4-(1-(pentan-3-yl)-1H-pyrazol-4-yl)pyrazolo[1,5-a]pyrazin-6-yl)-1H-pyrazol-1-yl)cyclobutanecarboxamide]
16 | 1 to 10 | 0.1 to 1 | 1 to 10 | 0.1 to 1 | – | CCC(CC)n1cc(-c2nc(-c3cnn([C@H]4C[C@H](C(=O)N(C)C)C4)c3)cn3nccc23)cn1 [Example 169, (1r,3r)-N,N-dimethyl-3-(4-(4-(1-(pentan-3-yl)-1H-pyrazol-4-yl)pyrazolo[1,5-a]pyrazin-6-yl)-1H-pyrazol-1-yl)cyclobutanecarboxamide]
17 | 0.1 to 1 | 0.01 to 0.1 | 1 to 10 | 0.01 to 0.1 | – | CCC(CC)n1cc(-c2nc(-c3cnn([C@H]4C[C@@H](C(=O)N(C)C)C4)c3)cn3nccc23)cn1 [Example 170, (1s,3s)-N,N-dimethyl-3-(4-(4-(1-(pentan-3-yl)-1H-pyrazol-4-yl)pyrazolo[1,5-a]pyrazin-6-yl)-1H-pyrazol-1-yl)cyclobutanecarboxamide]
18 | 0.1 to 1 | 0.01 to 0.1 | 1 to 10 | 0.01 to 0.1 | – | CCC(CC)n1cc(-c2nc(-c3cnn(C4CN(C(=O)[C@H](C)O)C4)c3)cn3nccc23)cn1 [Example 173, (S)-2-hydroxy-1-(3-(4-(4-(1-(pentan-3-yl)-1H-pyrazol-4-yl)pyrazolo[1,5-a]pyrazin-6-yl)-1H-pyrazol-1-yl)azetidin-1-yl)propan-1-one]
19 | 1 to 10 | 0.1 to 1 | 1 to 10 | 0.01 to 0.1 | – | CCC(CC)n1cc(-c2nc(-c3cnn(C4CN(C(=O)[C@@H](C)O)C4)c3)cn3nccc23)cn1 [Example 175, (R)-2-hydroxy-1-(3-(4-(4-(1-(pentan-3-yl)-1H-pyrazol-4-yl)pyrazolo[1,5-a]pyrazin-6-yl)-1H-pyrazol-1-yl)azetidin-1-yl)propan-1-one]
20 | 1 to 10 | 0.01 to 0.1 | 1 to 10 | 0.01 to 0.1 | – | CCC(CC)n1cc(-c2nc(-c3cnn(C4CN(C(=O)[C@H]5C[C@@H](O)C5)C4)c3)cn3nccc23)cn1 [Example 178, (cis-3-hydroxycyclobutyl)(3-(4-(4-(1-(pentan-3-yl)-1H-pyrazol-4-yl)pyrazolo[1,5-a]pyrazin-6-yl)-1H-pyrazol-1-yl)azetidin-1-yl)methanone]
21 | 1 to 10 | 0.01 to 0.1 | 1 to 10 | 0.01 to 0.1 | – | CCC(CC)n1cc(-c2nc(-c3cnn(C4CN(C(=O)[C@H]5C[C@H](O)C5)C4)c3)cn3nccc23)cn1 [Example 179, (trans-3-hydroxycyclobutyl)(3-(4-(4-(1-(pentan-3-yl)-1H-pyrazol-4-yl)pyrazolo[1,5-a]pyrazin-6-yl)-1H-pyrazol-1-yl)azetidin-1-yl)methanone]
22 | – | 0.1 to 1 | 1 to 10 | 0.1 to 1 | 1 to 10 | CCC(CC)n1cc(-c2nc(-c3cnn(C4CN(C(=O)CN5CC(O)C5)C4)c3)cn3nccc23)cn1 [Example 180, 2-(3-hydroxyazetidin-1-yl)-1-(3-(4-(4-(1-(pentan-3-yl)-1H-pyrazol-4-yl)pyrazolo[1,5-a]pyrazin-6-yl)-1H-pyrazol-1-yl)azetidin-1-yl)ethanone]
